“Also recorded” adds a separate entry of the source.
T1: Cluc_RxR
T1 construct: Expressed in transfected 293T cells
T1 chain: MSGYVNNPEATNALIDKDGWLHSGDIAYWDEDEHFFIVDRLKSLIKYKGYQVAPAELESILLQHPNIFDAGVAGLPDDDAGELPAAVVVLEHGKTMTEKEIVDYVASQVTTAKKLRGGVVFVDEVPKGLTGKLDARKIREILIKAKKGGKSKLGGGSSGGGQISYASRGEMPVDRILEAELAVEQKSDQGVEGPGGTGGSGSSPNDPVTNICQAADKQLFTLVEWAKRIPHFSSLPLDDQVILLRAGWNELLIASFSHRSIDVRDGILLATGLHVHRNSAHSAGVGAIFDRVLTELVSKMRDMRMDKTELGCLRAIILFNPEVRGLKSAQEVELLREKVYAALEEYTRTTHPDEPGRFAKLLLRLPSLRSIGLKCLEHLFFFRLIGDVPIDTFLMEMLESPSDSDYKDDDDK

B1: RxR Nluc (other)
chain: MDYKDDDDKEMPVDRILEAELAVEQKSDQGVEGPGGTGGSGSSPNDPVTNICQAADKQLFTLVEWAKRIPHFSSLPLDDQVILLRAGWNELLIASFSHRSIDVRDGILLATGLHVHRNSAHSAGVGAIFDRVLTELVSKMRDMRMDKTELGCLRAIILFNPEVRGLKSAQEVELLREKVYAALEEYTRTTHPDEPGRFAKLLLRLPSLRSIGLKCLEHLFFFRLIGDVPIDTFLMEMLESPSDSQISYASRGGGSSGGGEDAKNIKKGPAPFYPLEDGTAGEQLHKAMKRYALVPGTIAFTDAHIEVNITYAEYFEMSVRLAEAMKRYGLNTNHRIVVCSENSLQFFMPVLGALFIGVAVAPANDIYNERELLNSMNISQPTVVFVSKKGLQKILNVQKKLPIIQKIIIMDSKTDYQGFQSMYTFVTSHLPPGFNEYDFVPESFDRDKTIALIMNSSGSTGLPKGVALPHRTACVRFSHARDPIFGNQIIPDTAILSVVPFHHGFGMFTTLGYLICGFRVVLMYRFEEELFLRSLQDYKIQSALLVPTLFSFFAKSTLIDKYDLSNLHEIASGGAPLSKEVGEAVAKRFHLPGIRQGYGLTETTSAILITPEGDDKPGAVGKVVPFFEAKVVDLDTGKTLGVNQRGELCVRGPMIMSGYVNNPEATNALIDKDG
notes: also called R×R Nluc; RXR-fLuc

Legend:
[1] = system: split fLuc fused to EcR and RXR domains; assay: Split firefly luciferase (fLuc) bioluminescence assay, EcR-RXR ligand inducible polypeptide coupler; assay type: cell-based
Protocol: (§1) HEK293 cells were transfected with the split fLuc fused to EcR and RXR domains as follows:
(§2) A day before transfection, 10,000 cells (293T cells) were plated into each well of a 96 well plate containing 100 μl of growth medium (Dulbecco's Modified Eagle's Medium with 10% Fetal Bovine Serum) without antibiotics. Plasmids in pairs, RxR Nluc with Cluc EcR and EcR_ Nluc with Cluc_ RxR (see FIG. 8; amino acid sequences for the constructs depicted in FIG. 8 are provided as SEQ ID NOs: 87-92, respectively. SEQ ID NOs: 91 and 92 correspond to the EcR and RXR amino sequences, respectively, employed in the constructs of FIG. 8), were transfected with Lipofectamine® 2000, according to manufacturer's specifications. Briefly, individual plasmid DNA (0.2 μg) and 0.5 μl of Lipofectamine 2000® was diluted in 25.0 μl of OptiMEM® I Reduced Serum Medium and incubated for 5 minutes at room temperature, volumes were doubled for co-transfections. Diluted plasmid DNA was combined with diluted Lipofectamine® 2000 and incubated for 20 minutes at room temperature. 50 μl of the DNA/Lipofectamine® 2000 complex was added to each well of the 96 well plate. Cells were incubated at 37° C. in a 5% CO2 incubator for 24 hours, prior to addition of the activating ligand Veledimex. […]

EcR_Nluc+Cluc_EcR = assay: Split fLuc bioluminescence assay, EcR-EcR homodimerization; assay type: cell-based; conditions: upon ligand addition, FIGS. 11 and 12
Protocol: (§3) Experiments were performed to test if nuclear receptor domains (i.e., EcR and RxR polypeptides) could be induced to homodimerize upon addition of ligand (FIGS. 11 and 12). STAT1 was used as control polypeptide since it is reported to self dimerize independent of ligand addition. Abbreviations in the figures are:
“EcR-EcR” means “EcR_Nluc+Cluc_EcR” which is a luciferase polypeptide split into two halves, such that an EcR polypeptide is fused to the N-terminus of a luciferase polypeptide fragment (EcR_Nluc) and another fragment of luciferase has an EcR polypeptide fused to its C-terminal end (Cluc_EcR); thereby activating luciferase (generation of bioluminescence) upon EcR homodimerization;

RxR domains = target: T2, RxR domains (Homo sapiens, UniProt P28702, A451V/A495S/C475T/D450E/E481D/K452R/K476R/K478T/K511R/N456S/P457A/Q477T/Q482E/Q483P/S455K/S458Q/S470A/T473E/T516V/V462L/Y479H); assay: Split fLuc bioluminescence assay, RxR homodimerization; assay type: cell-based; conditions: FIGS. 11 and 12
T2 construct: expressed in transfected cells
Protocol: as §3
“RxR” is Retinoid X receptor;

STAT1 = target: T3, STAT1 (Homo sapiens, UniProt P42224); assay: Split fLuc bioluminescence assay, STAT1 positive control; assay type: cell-based; conditions: Ligand − and +, FIG. 7
T3 construct: expressed in transfected cells; host or cells: HEK293 / 293T cells

293T cells = assay: Bioluminescence assay, mock (no vector), activating ligand alone; assay type: cell-based; conditions: negative control, no split fLuc vectors; FIG. 7
Protocol: A day before transfection, 10,000 cells (293T cells) were plated into each well of a 96 well plate containing 100 μl of growth medium (Dulbecco's Modified Eagle's Medium with 10% Fetal Bovine Serum) without antibiotics. Plasmids in pairs, RxR Nluc with Cluc EcR and EcR_ Nluc with Cluc_ RxR (see FIG. 8; amino acid sequences for the constructs depicted in FIG. 8 are provided as SEQ ID NOs: 87-92, respectively. SEQ ID NOs: 91 and 92 correspond to the EcR and RXR amino sequences, respectively, employed in the constructs of FIG. 8), were transfected with Lipofectamine® 2000, according to manufacturer's specifications. Briefly, individual plasmid DNA (0.2 μg) and 0.5 μl of Lipofectamine 2000® was diluted in 25.0 μl of OptiMEM® I Reduced Serum Medium and incubated for 5 minutes at room temperature, volumes were doubled for co-transfections. Diluted plasmid DNA was combined with diluted Lipofectamine® 2000 and incubated for 20 minutes at room temperature. 50 μl of the DNA/Lipofectamine® 2000 complex was added to each well of the 96 well plate. Cells were incubated at 37° C. in a 5% CO2 incubator for 24 hours, prior to addition of the activating ligand Veledimex.
Twenty four hours (24hrs) post-transfection, cell culture media from each well of the 96-well plate was replaced with 100 nM Veledimex activating ligand and Dimethyl sulfoxide-DMSO (negative control). […]

Cluc_RxR = target: T1, Cluc_RxR; assay: split firefly luciferase complementation, with and without Veledimex
Protocol: as §1
as §2, with “CO₂” for “CO2”

T3 sequence (P42224 with tags, fused parts or gaps): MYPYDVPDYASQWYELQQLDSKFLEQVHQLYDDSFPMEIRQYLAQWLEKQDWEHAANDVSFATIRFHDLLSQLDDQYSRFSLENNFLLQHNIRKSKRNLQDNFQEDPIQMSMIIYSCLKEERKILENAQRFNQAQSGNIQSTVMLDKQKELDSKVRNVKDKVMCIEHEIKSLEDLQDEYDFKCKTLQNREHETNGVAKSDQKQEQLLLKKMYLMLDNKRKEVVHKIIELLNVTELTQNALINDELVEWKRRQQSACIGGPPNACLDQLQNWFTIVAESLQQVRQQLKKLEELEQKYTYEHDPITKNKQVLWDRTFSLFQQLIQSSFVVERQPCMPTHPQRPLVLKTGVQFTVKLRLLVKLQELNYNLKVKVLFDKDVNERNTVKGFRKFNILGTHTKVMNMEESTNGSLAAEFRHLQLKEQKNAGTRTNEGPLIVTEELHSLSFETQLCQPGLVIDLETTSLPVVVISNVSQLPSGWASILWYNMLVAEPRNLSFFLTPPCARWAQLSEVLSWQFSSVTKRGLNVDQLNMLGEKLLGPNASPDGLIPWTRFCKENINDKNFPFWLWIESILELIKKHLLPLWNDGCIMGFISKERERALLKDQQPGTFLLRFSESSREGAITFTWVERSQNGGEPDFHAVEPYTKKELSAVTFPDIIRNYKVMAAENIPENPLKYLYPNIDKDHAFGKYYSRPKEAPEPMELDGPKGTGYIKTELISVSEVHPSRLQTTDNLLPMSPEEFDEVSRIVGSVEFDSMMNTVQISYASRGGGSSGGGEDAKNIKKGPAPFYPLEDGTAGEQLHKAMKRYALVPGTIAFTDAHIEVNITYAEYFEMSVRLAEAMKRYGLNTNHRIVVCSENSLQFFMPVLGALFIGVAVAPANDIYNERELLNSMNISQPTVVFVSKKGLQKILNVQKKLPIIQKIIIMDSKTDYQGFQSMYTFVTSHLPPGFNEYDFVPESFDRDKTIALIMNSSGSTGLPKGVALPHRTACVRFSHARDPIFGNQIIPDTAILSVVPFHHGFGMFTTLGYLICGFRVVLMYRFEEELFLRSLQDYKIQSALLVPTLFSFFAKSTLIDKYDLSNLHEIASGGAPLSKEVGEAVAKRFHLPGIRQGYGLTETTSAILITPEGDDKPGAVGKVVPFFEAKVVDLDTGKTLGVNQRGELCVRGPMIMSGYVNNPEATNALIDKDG
T3 sequence (P42224 with tags, fused parts or gaps): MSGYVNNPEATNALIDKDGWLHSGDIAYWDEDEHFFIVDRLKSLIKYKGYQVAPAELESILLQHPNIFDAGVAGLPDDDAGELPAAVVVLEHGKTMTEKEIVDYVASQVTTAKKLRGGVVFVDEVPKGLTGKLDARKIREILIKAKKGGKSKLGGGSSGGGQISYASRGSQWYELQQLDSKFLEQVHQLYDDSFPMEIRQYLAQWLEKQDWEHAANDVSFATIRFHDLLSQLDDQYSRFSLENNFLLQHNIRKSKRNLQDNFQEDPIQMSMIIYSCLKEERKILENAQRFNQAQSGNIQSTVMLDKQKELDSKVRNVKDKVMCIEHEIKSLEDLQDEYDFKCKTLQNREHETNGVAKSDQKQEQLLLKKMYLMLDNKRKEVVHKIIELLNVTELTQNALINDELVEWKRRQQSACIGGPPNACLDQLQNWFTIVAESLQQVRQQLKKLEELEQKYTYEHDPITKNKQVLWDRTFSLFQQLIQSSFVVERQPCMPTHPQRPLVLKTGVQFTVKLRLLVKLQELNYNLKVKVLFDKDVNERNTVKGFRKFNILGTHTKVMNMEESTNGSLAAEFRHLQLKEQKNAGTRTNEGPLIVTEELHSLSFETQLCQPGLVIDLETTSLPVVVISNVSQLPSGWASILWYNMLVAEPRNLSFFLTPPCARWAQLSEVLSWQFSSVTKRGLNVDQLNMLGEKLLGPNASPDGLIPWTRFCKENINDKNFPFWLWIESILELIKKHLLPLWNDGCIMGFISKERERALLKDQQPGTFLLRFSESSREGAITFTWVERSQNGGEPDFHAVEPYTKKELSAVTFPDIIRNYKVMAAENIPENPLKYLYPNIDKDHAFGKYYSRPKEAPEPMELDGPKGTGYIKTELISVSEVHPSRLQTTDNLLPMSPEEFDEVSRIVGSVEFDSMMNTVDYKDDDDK

binding result (Cluc_RxR)	Molecule	RxR-EcR heterodimerization (bioluminescence) ([1]; EcR_Nluc+Cluc_RXR, Example 2, FIGS. 11 and 12)	fLuc signal (bioluminescence) ([1]; cells transfected with split fLuc fused to EcR and RXR, 100 nM Veledimex, 6 hours after addition, FIG. 7, listed as activating ligand)	EcR domain homodimerization (bioluminescence) (EcR_Nluc+Cluc_EcR)	RxR domain homodimerization (bioluminescence) (RxR domains)	Signal of the positive control (STAT1 split fLuc) (STAT1)	fLuc reading, activating ligand alone (293T cells)
–	CCC[C@@H](N(NC(=O)c1cccc(OC)c1CC)C(=O)c1cc(C)cc(C)c1)C(C)(C)C [Veledimex]	strongest signal (bioluminescence) was observed	fLuc signal was detected; also recorded: a clear fLuc signal is generated; also recorded: drives split fLuc signal only in the presence of activating ligand	statistically significant homodimerization of EcR domains	homodimerize independent of ligand	unaffected	only background readings
binds	B1	–	–	–	–	–	–

— US20180348231A1, “LIGAND INDUCIBLE POLYPEPTIDE COUPLER SYSTEM” (Intrexon Corporation, priority 2015, published 2018)
